According to patent publication US9066880B2, “Use of dihydrodehydrodiisoeugenol and preparations comprising dihydrodehydrodiisoeugenol” (SYMRISE AG, priority 2010, dated 2015):
Blank lines part the entries; values can stand above or below the compound they belong to.

Tests used:
[1] = test system: 3T3-L1-cells (mouse embryonic fibroblast-like preadipocytes cell line); test: Lipolysis assay (in vitro), free glycerol in supernatant; type: cell-based; settings: for Relative lipolysis compared to basal lipolysis: added at day 10 for 20 hours, basal lipolysis = 100%
Experimental: 3T3-L1-cells (mouse embryonic fibroblast-like preadipocytes cell line) were propagated in Dulbecco's Modified Eagle Medium (DMEM), enriched with 10% newborn calf serum (CS) at 37° C. and 5% CO2 and seeded in 48-well plates for lipolysis. After reaching confluence at day −2 the differentiation was induced by changing medium at day 0 to DMEM with 10% fetal calf serum (FCS) containing a hormone mix (HM) of 1 μg/ml insulin, 0.25 μM dexamethasone (Dex) and 0.5 mM 3-isobutyl-1-methylxanthine (IBMX). Medium is renewed every other day. At day 2, medium consisting of DMEM, 10% FCS and 1 μg/ml insulin is added. From day 4 on, only DMEM containing 10% FCS is used for further cultivation of cells. For determination of lipolysis, compounds of interest are added at day 10 for 20 hours mixed with bovine serum albumin (BSA). If lipolysis occurs, cells secrete glycerol into the supernatant. Therefore, supernatants are harvested and determination of lipolysis is performed by using a free glycerol reagent. The quantification of the free glycerol is carried out on the basis of an enzymatic method with a free glycerol reagent.
The lipolysis in the presence of the test substances is calculated according to the following equation:
[formula] wherein • A test substance=absorption of the wells with test substance and with cells • A control=absorption of the wells without test substance, but with cells • A control without cells=absorption of the wells without test substance and without cells

[2] = test system: 3T3-L1-cells (mouse embryonic fibroblast-like preadipocytes cell line); test: Quantification of intracellular lipids (stimulation of adipogenesis), Nile Red; type: cell-based; design: Stimulation of adipogenesis: unit not given here; settings: for Stimulation of adipogenesis: applied day −2 to day 2, Nile Red at day 10, vs hormone mix only
Experimental: 3T3-L1-cells (mouse embryonic fibroblast-like preadipocytes cell line) were propagated in Dulbecco's Modified Eagle Medium (DMEM), enriched with 10% newborn calf serum (CS) at 37° C. and 5% CO2 and seeded in 48-well plates for lipid quantification. After reaching confluence at day −2 the differentiation was induced by changing medium at day 0 to DMEM with 10% fetal calf serum (FCS) containing a hormone mix (HM) of 1 μg/ml insulin, 0.25 μM dexamethasone (Dex) and 0.5 mM 3-isobutyl-1-methylxanthine (IBMX).
Compounds of interest such as compound of formula (I) are applied from day −2 (confluence of the cells) until day 2 using various concentrations. Medium is renewed every other day. At day 2, medium consisting of DMEM, 10% FCS and 1 μg/ml insulin is added. From day 4 on, only DMEM containing 10% FCS is used for further cultivation of cells. At day 10, quantification of the intracellular lipid droplets is performed by addition of the fluorescent dye Nile Red (9-diethylamino-5H-benzo[alpha]phenoxazine-5-one) for 20 minutes at 37° C. and 5% CO2. Fluorescence (RFU) is detected with excitation at 485 nm and emission at 535 nm.
Stimulation of the adipogenesis in the presence of the compounds of interest is calculated according to the following equation:
[formula] wherein • RFU test substance=Relative Fluorescence Units of the wells with test substance and with cells • RFU control=Relative Fluorescence Units of the wells stimulated with hormone mix only. • RFU without cells=Relative Fluorescence Units of the wells containing Nile Red only, without cells.

[3] = test system: CCAAT enhancer binding protein α (C/EBPα); test: Real Time-PCR, expression of differentiation marker C/EBPα in 3T3-L1-cells; type: cell-based, mouse; settings: fold induction compared to hormone mix stimulation (set equal to one)
Experimental: (§1) 3T3-L1-cells (mouse embryonic fibroblast-like preadipocytes cell line) were propagated in Dulbecco's Modified Eagle Medium (DMEM), enriched with 10% newborn calf serum (CS) at 37° C. and 5% CO2 and seeded in 12-well plates for gene expression analysis. After reaching confluence at day −2, the differentiation was induced by changing medium at day 0 to DMEM with 10% fetal calf serum (FCS) containing a hormone mix (HM) of 1 μg/ml insulin, 0.25 μM dexamethasone (Dex) and 0.5 mM 3-isobutyl-1-methylxanthine (IBMX). Compounds of interest such as compound of formula (I) are applied from day −2 (confluence of the cells) until day 2 using various concentrations. Medium is renewed every other day. At day 2, medium consisting of DMEM, 10% FCS and 1 μg/ml insulin is added. From day 4 on, only DMEM containing 10% FCS is used for further cultivation of cells. […]
(§2) Total RNA from cell culture samples was isolated using RNeasy Total RNA Kits (Qiagen, Hilden; Germany). The RNA concentration and purity was determined photometrically using 260/280 ratios (Biophotometer, Eppendorf, Hamburg, Germany). […] At least three independent experiments were performed with 2 determinations each and the mean value of these was calculated. […] Each sample was analyzed in duplicate employing the universal protocol over 46 cycles. […]

Cyclooxygenase-2 (COX-2) = target: T1, Cyclooxygenase-2 (COX-2) (Homo sapiens, UniProt P35354); test: COX-2-Assay (in vitro), fluorometric ADHP/resorufin; type: biochemical; settings: average of at least 2 independent experiments
T1 sequence (P35354 18-604): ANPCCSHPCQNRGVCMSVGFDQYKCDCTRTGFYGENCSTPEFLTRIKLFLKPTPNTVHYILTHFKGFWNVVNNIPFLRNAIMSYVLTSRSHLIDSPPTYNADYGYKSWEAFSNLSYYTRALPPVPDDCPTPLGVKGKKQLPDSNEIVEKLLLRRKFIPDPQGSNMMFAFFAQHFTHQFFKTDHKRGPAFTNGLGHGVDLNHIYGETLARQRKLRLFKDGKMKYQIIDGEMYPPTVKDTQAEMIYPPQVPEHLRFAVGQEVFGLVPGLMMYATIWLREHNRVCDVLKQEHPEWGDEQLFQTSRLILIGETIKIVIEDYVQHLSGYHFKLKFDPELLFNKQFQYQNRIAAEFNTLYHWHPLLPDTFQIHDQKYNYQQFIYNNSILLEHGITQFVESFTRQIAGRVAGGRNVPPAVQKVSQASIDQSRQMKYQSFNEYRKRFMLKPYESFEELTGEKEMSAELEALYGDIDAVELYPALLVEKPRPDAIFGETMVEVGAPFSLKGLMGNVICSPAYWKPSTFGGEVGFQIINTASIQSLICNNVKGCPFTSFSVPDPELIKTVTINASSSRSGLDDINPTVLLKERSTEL
Source text: Cyclooxygenase-2 (COX-2) in the presence of test substance is mixed with the fluorometric substrate 10-acetyl-3,7-dihydroxyphenoxanin (ADHP) and Heme. The reaction is started by addition of the substrate arachidonic acid.
COX-2 converts the arachidonic acid into the prostaglandin endoperoxide G2 (PGG2). PGG2 is reduced to the corresponding alcohol PGH2. During this reaction ADHP results in fluorescent resorufin. Resorufin is quantified at an extinction wavelength of 535 nm and an emission wavelength of 590 nm.
[formula] where • Resorufin test substance=Resorufin concentration of the wells with test substance and with COX-2 • Resorufin control=Resorufin concentration of the wells without test substance, but with COX-2 • Resorufin control without COX-2=Resoruf in concentration of the wells without test substance and without COX-2
From the inhibition of the COX-2[%] in a series of dilutions of tested samples the IC50 is calculated. This is the concentration at which the activity of the COX-2 is inhibited by 50%.

[4] = test system: peroxisome proliferator-activated receptor γ2 (PPARγ2); test: Real Time-PCR, expression of differentiation marker PPARγ2 in 3T3-L1-cells; type: cell-based, mouse; settings: fold induction compared to hormone mix stimulation (set equal to one)
Experimental: as §1, §2

[5] = test system: Preadipocyte factor 1 (Pref1); test: Real Time-PCR, expression of preadipocytes marker Pref-1 in 3T3-L1-cells; type: cell-based, mouse; settings: relative to hormone mix stimulation (set equal to one)
Experimental: as §1, §2

[6] = ABTS-Assay (in vitro), anti-oxidative capacity; settings: photometric at 734 nm, average of at least 2 independent experiments
Experimental: With the help of the ABTS-assay the anti-oxidative capacity of test substances is measured. 2,2′-azino bis-(3-ethylbenzothiazoline 6-sulfonic acid) (ABTS) is transformed by potassium persulfate into the blue-green radical cation ABTS•+. Through the addition of antioxidants (test substance) the radical cations are reduced and discoloration takes place, which is determined photometrically at 734 nm.
[formula] A test substance=absorption of the wells with test substance • A control=absorption of the wells without test substance
From the inhibition of the radical formation [%] in a series of dilutions of tested samples the IC50 is calculated. This is the concentration at which the radical formation is inhibited by 50%.

adiponectin = test: Real Time-PCR, expression of differentiation marker adiponectin in 3T3-L1-cells; type: cell-based, mouse; settings: fold induction compared to hormone mix stimulation (set equal to one)
Experimental: as §1, §2

[7] = test system: fatty acid binding protein 4 (FABP4); test: Real Time-PCR, expression of differentiation marker FABP4 in 3T3-L1-cells; type: cell-based, mouse; settings: fold induction compared to hormone mix stimulation (set equal to one)
Experimental: as §1, §2

SMILES: C[C@H]1CC[C@@]2(OC1)O[C@H]1C[C@H]3[C@@H]4CC[C@@H]5C[C@@H](O)CC[C@]5(C)[C@H]4CC[C@]3(C)[C@H]1[C@@H]2C [sarsasapogenin, reference compound]
Relative lipolysis compared to basal lipolysis ([1]; 10 μM): 99% ± 3.3
Relative lipolysis compared to basal lipolysis ([1]; 20 μM): 106% ± 3.5
Effect on lipolysis in differentiated adipocytes (in words) ([1]; experiments have shown): no effect on the lipolysis
Stimulation of adipogenesis ([2]; 10 μM): 27
Stimulation of adipogenesis ([2]; 20 μM): 17
Effect on adipogenesis (in words) ([2]; experiments have shown): stimulating the adipogenesis

IC50 calculated from the inhibition of COX-2 (Cyclooxygenase-2 (COX-2)): 12.3 ppm
IC50 calculated from the inhibition of radical formation [6]: 11.0 ppm
SMILES: CCCc1cc(OC)c2c(c1)C(C)C(c1ccc(O)c(OC)c1)O2 (centres unmarked) [compound of formula (I), 2-Methoxy-4-(7-methoxy-3-methyl-5-propyl-2,3-dihydro-benzofuran-2-yl)-phenol]
Stimulation of expression at day 2, C/EBPα ([3]; 1 μM): 1.1
Stimulation of expression at day 2, C/EBPα ([3]; 10 μM): 2.2
Relative lipolysis compared to basal lipolysis ([1]; 1 μM): 85% ± 1.6
Relative lipolysis compared to basal lipolysis ([1]; 10 μM): 85% ± 1.5
Stimulation of adipogenesis ([2]; 0.01 μM): 18
Stimulation of adipogenesis ([2]; 0.1 μM): 30
Stimulation of adipogenesis ([2]; 0.25 μM): 35
Stimulation of adipogenesis ([2]; 0.5 μM): 38
Stimulation of adipogenesis ([2]; 0.75 μM): 48
Stimulation of adipogenesis ([2]; 1 μM): 49
Stimulation of adipogenesis ([2]; 2.5 μM): 48
Stimulation of adipogenesis ([2]; 5 μM): 37
Stimulation of adipogenesis ([2]; 10 μM): 22
Stimulation of expression at day 2, PPARγ2 ([4]; 1 μM): 1.0
Stimulation of expression at day 2, PPARγ2 ([4]; 10 μM): 1.5
Relative expression at day 2, Pref-1 ([5]; 1 μM): 0.3
Relative expression at day 2, Pref-1 ([5]; 10 μM): 0.7
Stimulation of expression at day 2, Adiponectin (adiponectin; 1 μM): 1.4
Stimulation of expression at day 2, Adiponectin (adiponectin; 10 μM): 2.2
Stimulation of expression at day 2, FABP4 ([7]; 1 μM): 2.1
Stimulation of expression at day 2, FABP4 ([7]; 10 μM): 3.3
